According to patent publication US20260102413A1, “TREATING PAIN ASSOCIATED WITH CENTRAL SENSITIZATION” (Medicon Pharmaceuticals, Inc., priority 2022, published 2026):

How the values were obtained:
[1] = tested on: mice with NTG-induced migraine; assay: von Frey PWT, NTG-induced migraine model, oral or intraperitoneal compounds; assay type: in vivo, mouse; settings: mouse, in vivo
Experimental: Phosphonaproxen (Formula VIII), and its parent compound, naproxen, were administered orally to each mouse group. All compounds were administered at equimolar doses. In particular, phosponaproxen was administered at 65 mg/kg, and naproxen was administered at 35 mg/kg, 30 minutes after NTG administration. The response of mechanical allodynia was tested 30 minutes after administration.

[2] = tested on: mice with paclitaxel-induced CIPN; assay: von Frey PWT, paclitaxel CIPN model, orally administered compounds; assay type: in vivo, mouse; settings: mouse, in vivo
Excerpt: CIPN was induced in mice with chemotherapeutic agents using established protocols (Carozzi et al, 2010; Currie et al, 2019; Eldridge et al, 2020). […] This dosing regimen of paclitaxel produces pain associated with CIPN with time courses that are similar to those of pain after paclitaxel administration in cancer patients.
Group 1: naïve mice (i.e. no paclitaxel, n=8) • 2. Group 2: paclitaxel only (n=8) • 3. Group 3: paclitaxel plus vehicle (n=8) • 4. […] Group 5: paclitaxel pluse sulindac (n=8)
The PWT test was performed on day 7.
Phospho-naproxen (PN) and naproxen were given by oral gavage, three times a day for 7 days. Their doses were as follows: PN, 65 mg/kg; naproxen, 35 mg/kg (equimolar to PN). The response of mechanical allodynia to phospho-naproxen (PN) and naproxen was tested on day 7.
(§1) This dosing regimen of paclitaxel produces pain associated with CIPN with time courses that are similar to those of pain after paclitaxel administration in cancer patients.
Phospho-ibuprofen (PI) (Formula III), phospho-glycerol-ibuprofen (PGI) (Formula LXXI), phospho-ibuprofen-amide (PIA) (Formula XI), and ibuprofen were given by oral gavage, three times a day for 6 days. Their doses were as follows: ibuprofen, 40 mg/kg; PI, 80 mg/kg; PIA, 80 mg/kg; all three were equimolar.
The response of mechanical allodynia to these compounds was tested on day 6, using the PWT test.
as §1
NO-sulindac (Formula XLIV), HS-sulindac (Formula XXXIV), platinum-sulindac (Formula LXVII), and NOSH-1 (Formula LIX) were given by oral gavage, three times a day throughout the study period. Their doses were all 100 mg/kg.
The response of mechanical allodynia to these compounds was tested on the days set out in the table below, via the PWT test.
LXIX was given by oral gavage, once a day for 14 days at a dose of 100 mg/kg.
The response of mechanical allodynia to these compounds was tested on day 14, via the PWT test.

[3] = tested on: mice with chronic constriction injury of the left sciatic nerve (PTPN); assay: von Frey PWT, chronic constriction injury (CCI) model of PTPN, topical compounds; assay type: in vivo, mouse; settings: PI, PN 5% on left hind paw 3x/day 14 days; day 14
Experimental: The PWT test was performed following ligation, but prior to treatment to determine baseline values. The PWT was then further measured on day 14.

in vivo = settings: Sprague-Dawley, rat, po, 95 mg/kg; for AUC(0-t): AUC0-24 h; for AUC(0-t) / Cmax / Tmax: single oral dose PN 95 mg/kg, rats
Experimental: Approximately 800 μL of blood were collected through cardiac puncture and immediately centrifuged.
Tissue samples were harvested using separate dissection instruments for each tissue sample to avoid cross contamination, and snap frozen. The levels of the test drug were determined by HPLC.
As previously described (Wen et al, 2019), each plasma sample was mixed with double volume of acetonitrile and centrifuged at 13,200 rpm for 15 min. Tissue samples were weighed, ddH2O (100-300 μL, depending on tissue weight) was added, and they were homogenized. Following addition of acetonitrile (twice the volume of the homogenate), the mixture was sonicated for 10 min, centrifuged at 13,200 rpm for 15 min, and analyzed by HPLC, as reported (Wen et al, 2019).
It was performed following a previously reported method (Xie et al, 2012). Briefly, the HPLC system consisted of a Waters Alliance 2695 Separations Module (Milford, MA, USA) equipped with a Waters 2998 photodiode array detector (328 nm) and a Thermo Hypersil BDS C18 column (150×4.6 mm, particle size 3 μm). The mobile phase consisted of a gradient between solvent A (formic acid, CH3CN, H2O (0.1:4.9:95 v/v/v)) and solvent B (CH3CN) at a flow rate of 1 mL·min−1 at 30° C. We applied gradient elution from 30 to 100% solvent B from 0-6 min, and it was maintained at 100% solvent B until 8 min.
The methods are identical to those used in Example 27.
A single dose of PN or PSA was given by oral gavage to groups of three Sprague-Dawley rats, which were euthanized and dissected according to the early example. The oral gavage solution of phosphonaproxen was prepared by dissolving in 10% DMSO and then suspending it in corn oil.

[4] = tested on: mice with paclitaxel-induced neuropathic pain (CIPN); assay: von Frey paw withdrawal threshold (mechanical allodynia), paclitaxel-induced CIPN / central sensitization, treatment of established pain, topical test compounds; assay type: in vivo, mouse
Experimental: Paw withdrawn, licking or shaking were considered positive responses.
(§2) The first doses were administered 5 days after the last administration of paclitaxel (i.e., at day 0).
The PWT test was performed prior to the administration of paclitaxel (day −8) to establish the threshold in mice without neuropathic pain associated with CIPN (the value shown is an average of the PWT in all groups at day −8).
Pain associated with CIPN was established in line with the experiments disclosed herein. Mice were treated with naproxen 2.4% (equimolar to PN 5%), aspirin 1.7% (equimolar to PA2 5%); or ibuprofen 2.5% (equimolar to PI 5%) or vehicle applied topically to both hind paws 3×/day for 14 days.
CIPN was induced in mice with chemotherapeutic agents using established protocols (Carozzi et al, 2010; Currie et al, 2019; Eldridge et al, 2020).
The first doses were administered 1 day after the last administration of paclitaxel (i.e., at day 0).
as §2
The PWT test was performed on day 21, at the end of the experiment, but was also additionally determined on day 14 for LXIX.

CCOP(=O)(OCC)OCCCCOC(=O)C(C)c1ccc2cc(OC)ccc2c1 (stereo not shown) [PN, phospho-naproxen]
hydrolysis by carboxylesterases, times slower than PS (carboxylesterases): about 5 times | PWT, g Mean ± SEM [1]: 1.48 ± 0.22 g | PWT, g Mean ± SEM [2]: 0.66 ± 0.03 g | PWT, g Mean ± SEM [3]: 1.70 ± 0.12 g | half-life (in vivo): 540 min | AUC(0-t) (in vivo; blood): 1.7 µM·h | AUC(0-t) (in vivo; cerebellum): 3.1 µM·h | AUC(0-t) (in vivo; medulla): 6.9 µM·h | AUC(0-t) (in vivo; stomach): 4340 µM·h | AUC(0-t) (in vivo; vagus nerve): 63.1 µM·h | Cmax (in vivo; blood): 3.5 ± 1.2 µM | Cmax (in vivo; cerebellum): 1.2 ± 0.02 µM | Cmax (in vivo; medulla): 3.1 ± 0.6 µM | Cmax (in vivo; stomach): 717.2 ± 5 µM | Cmax (in vivo; vagus nerve): 24.2 ± 3.1 µM | Tmax (in vivo; blood): 60 min | Tmax (in vivo; cerebellum): 30 min | Tmax (in vivo; medulla): 30 min | Tmax (in vivo; stomach): 60 min | Tmax (in vivo; vagus nerve): 30 min | Paw-withdrawal threshold, g Mean ± SEM, Day 0 ([4]; group value after paclitaxel, before study drug): 0.64 ± 0.06 g | Paw-withdrawal threshold, g Mean ± SEM, Day 14 ([4]; mouse, in vivo): 1.19 ± 0.09 g
